Test results published in patent US8247211B2, “Glycopeptide antibiotics” (American Cyanamid Company, priority 2001, dated 2012).

How the values were obtained:
Test in all cases: In vitro antibacterial evaluation: minimum inhibitory concentration (MIC), broth dilution method
Type in all cases: cell-based
Enterococcus sp. = test system: Enterococcus sp.
Outline: (§1)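 MIC read as lowest drug level preventing visible growth. Organisms at 5×10^5 CFU/mL were exposed to a 64-0.06 μg/mL dilution series in Muller-Hinton II […] following NCCLS broth dilution standard M7-A2.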

Escherichia coli [1] = test system: Escherichia coli
Outline: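 Following NCCLS approved standard M7-A2, compounds are serially diluted from 64 to 0.06 μg/mL in Muller-Hinton II […] and inoculated at 5×10^5 CFU/mL; the MIC is the minimum concentration at which growth is inhibited.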

Staphylococcus sp. = details: 18 hours at 35° C.
Outline: as §1

Streptococcus sp. = details: 18 hours at 35° C.
Outline: as §1

Escherichia coli [2] = test system: Escherichia coli; remark: listed apart in the source

β-O-[(N-Methyl-2-methylpropylamino)carbonyl]-cyclo[glycyl-β-methylphenylalanyl-O-(4-O-hexopyranosylhexopyranosyl)tyrosyl-3-(2-iminoimidazolidin-4-yl)seryl-3-(3-hexopyranosyl-2-iminoimidazolidin-4-yl)serylseryl] [Example 255a]
MIC Enterococcus avium (GC 4558) (Enterococcus sp.; Enterococcus avium (GC 4558)): >0.5 µg/mL
MIC Enterococcus faecalis (ATCC 29212) (Enterococcus sp.; Enterococcus faecalis (ATCC 29212)): >0.5 µg/mL
MIC Enterococcus faecalis (GC 2242) (Enterococcus sp.; Enterococcus faecalis (GC 2242), 18 hours at 35° C.): >0.5 µg/mL
MIC Enterococcus faecalis (GC 2691) (Enterococcus sp.; Enterococcus faecalis (GC 2691), 18 hours at 35° C.): >0.5 µg/mL
MIC Enterococcus faecalis (GC 3059) (Enterococcus sp.; Enterococcus faecalis (GC 3059), 18 hours at 35° C.): >0.5 µg/mL
MIC Enterococcus faecalis (GC 4552) (Enterococcus sp.; Enterococcus faecalis (GC 4552), 18 hours at 35° C.): >0.5 µg/mL
MIC Enterococcus faecalis (GC 4553) (Enterococcus sp.; Enterococcus faecalis (GC 4553)): >0.5 µg/mL
MIC Enterococcus faecalis (GC 4554) (Enterococcus sp.; Enterococcus faecalis (GC 4554)): >0.5 µg/mL
MIC Enterococcus faecalis (GC 6189) (Enterococcus sp.; Enterococcus faecalis (GC 6189)): >0.5 µg/mL
MIC Enterococcus faecium (GC 2243) (Enterococcus sp.; Enterococcus faecium (GC 2243)): >64 µg/mL
MIC Enterococcus faecium (GC 4556) (Enterococcus sp.; Enterococcus faecium (GC 4556)): >64 µg/mL
MIC Enterococcus faecium (GC 4557) (Enterococcus sp.; Enterococcus faecium (GC 4557)): 32 µg/mL
MIC Enterococcus faecalis (ATCC 29212) (Enterococcus sp.; broth dilution, 18 hours at 35° C., strain ATCC 29212): >0.5 µg/mL
MIC Enterococcus faecalis (GC 2242) (Enterococcus sp.; broth dilution, 18 hours at 35° C., strain GC 2242): >0.5 µg/mL
MIC Enterococcus faecium (GC 2243) (Enterococcus sp.; broth dilution, 18 hours at 35° C., strain GC 2243): >64 µg/mL
MIC Enterococcus faecalis (GC 2691) (Enterococcus sp.; broth dilution, 18 hours at 35° C., strain GC 2691): >0.5 µg/mL
MIC Enterococcus faecalis (GC 3059) (Enterococcus sp.; broth dilution, 18 hours at 35° C., strain GC 3059): >0.5 µg/mL
MIC Enterococcus faecalis (GC 4552) (Enterococcus sp.; broth dilution, 18 hours at 35° C., strain GC 4552): >0.5 µg/mL
MIC Enterococcus faecalis (GC 4553) (Enterococcus sp.; broth dilution, 18 hours at 35° C., strain GC 4553): >0.5 µg/mL
MIC Enterococcus faecalis (GC 4554) (Enterococcus sp.; broth dilution, 18 hours at 35° C., strain GC 4554): >0.5 µg/mL
MIC Enterococcus faecium (GC 4556) (Enterococcus sp.; broth dilution, 18 hours at 35° C., strain GC 4556): >64 µg/mL
MIC Enterococcus faecium (GC 4557) (Enterococcus sp.; broth dilution, 18 hours at 35° C., strain GC 4557): 32 µg/mL
MIC Enterococcus avium (GC 4558) (Enterococcus sp.; broth dilution, 18 hours at 35° C., strain GC 4558): >0.5 µg/mL
MIC Enterococcus faecalis (GC 6189) (Enterococcus sp.; broth dilution, 18 hours at 35° C., strain GC 6189): >0.5 µg/mL
MIC Escherichia coli (GC 4559) (Escherichia coli [1]; Escherichia coli (GC 4559)): >0.5 µg/mL
MIC Escherichia coli (GC 4560) (Escherichia coli [1]; Escherichia coli (GC 4560)): 0.5 µg/mL
MIC Coagulase Negative Staphylococcus (GC 4547) (Staphylococcus sp.; Coagulase Negative Staphylococcus (GC 4547)): 64 µg/mL
MIC Coagulase Negative Staphylococcus (GC 4548) (Staphylococcus sp.; Coagulase Negative Staphylococcus (GC 4548)): >64 µg/mL
MIC Coagulase Negative Staphylococcus (GC 4549) (Staphylococcus sp.; Coagulase Negative Staphylococcus (GC 4549)): 64 µg/mL
MIC Coagulase Negative Staphylococcus (GC 4551) (Staphylococcus sp.; Coagulase Negative Staphylococcus (GC 4551)): >64 µg/mL
MIC Coagulase Negative Staphylococcus (GC 6257) (Staphylococcus sp.; Coagulase Negative Staphylococcus (GC 6257)): 64 µg/mL
MIC Staphylococcus aureus (ATCC 29213) (Staphylococcus sp.; Staphylococcus aureus (ATCC 29213)): >0.5 µg/mL
MIC Staphylococcus aureus (GC 1131) (Staphylococcus sp.; Staphylococcus aureus (GC 1131)): >0.5 µg/mL
MIC Staphylococcus aureus (GC 3051) (Staphylococcus sp.; Staphylococcus aureus (GC 3051)): 0.5 µg/mL
MIC Staphylococcus aureus (GC 3053) (Staphylococcus sp.; Staphylococcus aureus (GC 3053)): 0.5 µg/mL
MIC Staphylococcus aureus (GC 4541) (Staphylococcus sp.; Staphylococcus aureus (GC 4541)): >0.5 µg/mL
MIC Staphylococcus aureus (GC 4542) (Staphylococcus sp.; Staphylococcus aureus (GC 4542)): >0.5 µg/mL
MIC Staphylococcus aureus (GC 4544) (Staphylococcus sp.; Staphylococcus aureus (GC 4544)): >0.5 µg/mL
MIC Staphylococcus aureus (GC 4545) (Staphylococcus sp.; Staphylococcus aureus (GC 4545)): >0.5 µg/mL
MIC Staphylococcus aureus-SMITH (GC 4543) (Staphylococcus sp.; Staphylococcus aureus-SMITH (GC 4543)): >0.5 µg/mL
MIC Staphylococcus haemolyticus (GC 4546) (Staphylococcus sp.; Staphylococcus haemolyticus (GC 4546)): 64 µg/mL
MIC Staphylococcus aureus (ATCC 29213) (Staphylococcus sp.; broth dilution, strain ATCC 29213): >0.5 µg/mL
MIC Staphylococcus aureus (GC 1131) (Staphylococcus sp.; broth dilution, strain GC 1131): >0.5 µg/mL
MIC Staphylococcus aureus (GC 3051) (Staphylococcus sp.; broth dilution, strain GC 3051): 0.5 µg/mL
MIC Staphylococcus aureus (GC 3053) (Staphylococcus sp.; broth dilution, strain GC 3053): 0.5 µg/mL
MIC Staphylococcus aureus (GC 4541) (Staphylococcus sp.; broth dilution, strain GC 4541): >0.5 µg/mL
MIC Staphylococcus aureus (GC 4542) (Staphylococcus sp.; broth dilution, strain GC 4542): >0.5 µg/mL
MIC Staphylococcus aureus (GC 4544) (Staphylococcus sp.; broth dilution, strain GC 4544): >0.5 µg/mL
MIC Staphylococcus aureus (GC 4545) (Staphylococcus sp.; broth dilution, strain GC 4545): >0.5 µg/mL
MIC Streptococcus agalactiae (GC 4564) (Streptococcus sp.; Streptococcus agalactiae (GC 4564)): 64 µg/mL
MIC Streptococcus pneumoniae (GC 4565) (Streptococcus sp.; Streptococcus pneumoniae (GC 4565)): 32 µg/mL
MIC Streptococcus pyogenes (GC 4563) (Streptococcus sp.; Streptococcus pyogenes (GC 4563)): 32 µg/mL
MIC Streptococcus pyogenes (GC 4563) (Streptococcus sp.; broth dilution, strain GC 4563): 32 µg/mL
MIC Streptococcus agalactiae (GC 4564) (Streptococcus sp.; broth dilution, strain GC 4564): 64 µg/mL
MIC Streptococcus pneumoniae (GC 4565) (Streptococcus sp.; broth dilution, strain GC 4565): 32 µg/mL
MIC Escherichia coli (ATCC 25922) (Escherichia coli [2]): >0.5 µg/mL
